“And” between values parts separate entries of the source, which are not always exact repeats. Equal values may be shown once. Read-outs that look alike come from different tables or passages of the source. Peptide text beside a SMILES is read from it. * marks the point of attachment. Cbz = O=C(OCc1ccccc1)*
Columns and labels:
[1] = in DMSO; compound supply and quality parameters, supplier named in Table S4; cited from earlier work
CatL [2] = molecular target: T1, CatL (Homo sapiens, UniProt P07711, T223A); assay: CatL inhibition assay (Ki), substrate Z-RR-AMC; assay type: biochemical
T1 construct: made in house; host or cells: Komagataella pastoris strain GS115
Experimental: (§1) Experiments were performed in a solution of 50 mM sodium acetate, pH 4.0, 50 mM NaCl, 0.1% PEG 6000, and 5 mM DTT. Distinct assays with epoxide inhibitors at pH 6.0 were performed in 50 mM sodium phosphate buffer, 50 mM NaCl, 5 mM DTT, 0.1% PEG 6000, adjusted to pH 6.0.
(§2) M1000 pro plate reader (Tecan), the fluorescent peptide substrate Z-RR-AMC, and excitation and emission wavelengths of 370 and 460 nm, respectively.
(§3) At first, the inhibitor concentration span was optimized for each inhibitor and the assay buffer. For this initial screening, CatL (5 nM) was mixed with different concentrations of inhibitors (1 nM–50 μM) to determine the range of their inhibition. […] Reaction data were fitted to the […] in GraphPad Prism 9 software: Y = bottom + (top – bottom)/(1 + 10^∧((log IC50 – X) × HillSlope)); X is the log of dose or concentration, Y is the response (fluorescence signal), decreasing as X increases, top and bottom are the plateaus in the same units as Y, log IC50 same log units as X, HillSlope is the slope factor or called the Hill slope.

CatL [3] = settings: Table S1, SI reference list; cited from earlier work
CatL [4] = molecular target: T1, CatL; assay: NanoDSF, thermal stability of CatL; assay type: binding
cathepsin L = molecular target: T2, cathepsin L (Homo sapiens, UniProt P07711, T223A); assay: MALDI-TOF analysis of covalent CatL-inhibitor complex; assay type: binding; settings: 37 °C
T2 construct: made in house; host or cells: Komagataella pastoris strain GS115
Experimental: Experiments were performed in two different buffers, one at pH 4.0 (100 mM sodium acetate, pH 4.0, 50 mM NaCl, 5 mM DTT) and the other at pH 6.0 (100 mM sodium phosphate, pH 6.0, 50 mM NaCl, 5 mM DTT).
Mass spectrometry was performed on an UltrafleXtreme III MALDI-TOF/TOF mass spectrometer (Bruker, Billerica, MA). Samples were prepared on a standard steel target as described by Wenzel et al.[71] The spectra were acquired in a linear mode with a mass range of 20–50 kDa. […] The spectra were externally calibrated with aldolase and BSA standards (Sigma-Aldrich). Acquisition, processing, and calibration were performed using FlexControl 3.0 and FlexAnalysis software (Bruker).
(B) Two-dimensional interaction plot based on chain A according to Dis-
Figure S6. […] Activated matured cathepsin L (3 µM)
Molar ratio 1:10 pH = 4.0
Molar ratio 1:10 pH = 6.0 […]

CatL [5] = molecular target: T1, CatL; assay: CatL inactivation assay comparing epoxides at pH 6 and pH 4; assay type: biochemical
Experimental: as §1, §2, §3
Figure S7. Inactivation of CatL.
(1 picture or pasted object on this page, not shown here)

[6] = Cell viability assay (CellTiter-Blue); settings: African green monkey
[7] = tested on: SARS-CoV-2-GFP in Vero E6 cells; assay: microbe, parasite or virus in culture; assay type: cell-based; settings: Severe acute respiratory syndrome coronavirus 2, Vero C1008, 48 h, read-out: EC50 (48 h)
SARS-CoV-2 Mpro = SARS-CoV-2 Mpro (Severe acute respiratory syndrome coronavirus 2, UniProt P0DTD1); assay type: binding; settings: 2:1 compound to protein
Vero E6 cells = assay: Cell viability assay (CellTiter-Blue); settings: Vero E6 cells

T1 sequence (P07711 114-333 T223A): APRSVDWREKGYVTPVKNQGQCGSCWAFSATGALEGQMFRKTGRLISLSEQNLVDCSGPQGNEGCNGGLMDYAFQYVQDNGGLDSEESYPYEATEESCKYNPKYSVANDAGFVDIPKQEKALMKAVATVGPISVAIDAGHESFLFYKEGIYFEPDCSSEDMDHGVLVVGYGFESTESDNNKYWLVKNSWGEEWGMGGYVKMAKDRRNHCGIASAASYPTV
T2 sequence (P07711 114-333 T223A): as above

## CCc1ccccc1NC(=O)CSC(=O)NNC(=O)[C@H](Cc1c[nH]c2ccccc12)NC(=O)OC(C)(C)C [TC-I, tert-Butyl N-[(2S)-1-[2-[2-(2-ethylanilino)-2-oxoethyl]sulfanylcarbonylhydrazinyl]-3-(1H-indol-3-yl)-1-oxopropan-2-yl]carbamate]
[1]
  Solvent (max. solubility): 50 mg/mL
CatL [2]; CatL, Z-RR-AMC, pH 4.0, 37 °C, read-out: Ki
  Ki: 71.4 nM
CatL [2]; TC-I 0.665 nM
  Residual activity (Vi/V0): 0.9864 and 1.185
CatL [2]; TC-I 0.665 nM, read-out: Residual activity (Vi/V0)
  remaining activity at 0.000665 µM: 100%
CatL [2]; TC-I 1.109 nM
  Residual activity (Vi/V0): 0.9905 and 1.057
CatL [2]; TC-I 1.109 nM, read-out: Residual activity (Vi/V0)
  remaining activity at 0.001109 µM: 98.8%
CatL [2]; TC-I 1.849 nM
  Residual activity (Vi/V0): 0.9855 and 1.105
CatL [2]; TC-I 1.849 nM, read-out: Residual activity (Vi/V0)
  remaining activity at 0.001849 µM: 103%
CatL [2]; TC-I 3.082 nM
  Residual activity (Vi/V0): 1.069 and 1.158
CatL [2]; TC-I 3.082 nM, read-out: Residual activity (Vi/V0)
  remaining activity at 0.003082 µM: 111%
CatL [2]; TC-I 5.140 nM
  Residual activity (Vi/V0): 1.026 and 1.097
CatL [2]; TC-I 5.140 nM, read-out: Residual activity (Vi/V0)
  remaining activity at 0.00514 µM: 104%
CatL [2]; TC-I 8.568 nM
  Residual activity (Vi/V0): 1.0471 and 1.09
CatL [2]; TC-I 8.568 nM, read-out: Residual activity (Vi/V0)
  remaining activity at 0.008568 µM: 105%
CatL [2]; TC-I 14.274 nM
  Residual activity (Vi/V0): 0.9298 and 0.9778
CatL [2]; TC-I 14.274 nM, read-out: Residual activity (Vi/V0)
  remaining activity at 0.014274 µM: 100%
CatL [2]; TC-I 23.798 nM
  Residual activity (Vi/V0): 0.9534 and 0.9214
CatL [2]; TC-I 23.798 nM, read-out: Residual activity (Vi/V0)
  remaining activity at 0.023798 µM: 93.3%
CatL [2]; TC-I 39.658 nM
  Residual activity (Vi/V0): 0.9235 and 0.9214
CatL [2]; TC-I 39.658 nM, read-out: Residual activity (Vi/V0)
  remaining activity at 0.039658 µM: 74.6%
CatL [2]; TC-I 66.096 nM
  Residual activity (Vi/V0): 0.583 and 0.7717 and 0.8256
CatL [2]; TC-I 110.160 nM
  Residual activity (Vi/V0): 0.683 and 0.704
CatL [2]; TC-I 110.160 nM, read-out: Residual activity (Vi/V0)
  remaining activity at 0.11016 µM: 51.2%
CatL [2]; TC-I 183.600 nM
  Residual activity (Vi/V0): 0.3014 and 0.3466 and 0.5578
CatL [3]
  IC50: 6.9 nM
CatL [4]; 5 µM CatL, pH 5.0, 2% DMSO, 2:1
  ΔTm (for CatL), 2:1 compound to protein mixing ratio: 18,4 ± 0,1 °C and 18.4 °C
CatL [4]; 5 µM CatL, pH 5.0, 2% DMSO, 20:1
  ΔTm (for CatL), 20:1 compound to protein mixing ratio: 18,8 ± 0,0 °C and 18.8 °C
CatL [4]; 2:1 compound to protein
  2:1, Tm average (CatL): 81.5 °C
CatL [4]; 20:1 compound to protein
  20:1, Tm average (CatL): 81.9 °C
CatL [4]; Table S1, 2:1 ratio
  ΔTm [K] for CatL, 2:1 ratio: 18.4 ± 0.1 K

## O=C(NCc1ccccc1)[C@H](Cc1ccccc1)NC(=O)[C@H]1O[C@@H]1C(=O)NCCc1ccc(O)cc1 [CAA0225, (2S.3S)-2-N-[(1S)-1-(Benzylcarbamoyl)-2-phenylethyl]-3-N-[2-(4-hydroxyphenyl)ethyl]oxirane-2.3-dicarboxamide]
Cathepsin L; pH 4.0, molar ratio 1:10, 15 min
  Mass change of cathepsin L main peak with vs without inhibitor: 477.7 Da
Cathepsin L; pH 6.0, molar ratio 1:10, 15 min
  Mass change of cathepsin L main peak with vs without inhibitor: 493.8 Da
CatL [5]; CAA0225, pH 4, 4.39 nM
  Inactivation Rate: 0.0001763 per second
CatL [5]; CAA0225, pH 4, 5.85 nM
  Inactivation Rate: 0.0002627 per second
CatL [5]; CAA0225, pH 4, 6.59 nM
  Inactivation Rate: 0.0001334 per second
CatL [5]; CAA0225, pH 4, 8.78 nM
  Inactivation Rate: 0.0003675 per second and 0.0002752 per second
CatL [5]; CAA0225, pH 4, 9.88 nM
  Inactivation Rate: 0.0001166 per second
CatL [5]; CAA0225, pH 4, 13.17 nM
  Inactivation Rate: 0.0002828 per second and 0.0003022 per second
CatL [5]; CAA0225, pH 4, 14.82 nM
  Inactivation Rate: 0.0003059 per second
CatL [5]; CAA0225, pH 4, 19.75 nM
  Inactivation Rate: 0.0002683 per second and 0.0004006 per second
CatL [5]; CAA0225, pH 4, 22.22 nM
  Inactivation Rate: 0.0004569 per second
CatL [5]; CAA0225, pH 4, 29.63 nM
  Inactivation Rate: 0.0004182 per second and 0.0006192 per second
CatL [5]; CAA0225, pH 4, 33.34 nM
  Inactivation Rate: 0.0007535 per second
CatL [5]; CAA0225, pH 4, 44.44 nM
  Inactivation Rate: 0.0007461 per second and 0.001023 per second
CatL [5]; CAA0225, pH 4, 50.00 nM
  Inactivation Rate: 0.001182 per second
CatL [5]; CAA0225, pH 4, 66.67 nM
  Inactivation Rate: 0.001354 per second and 0.001764 per second
CatL [5]; CAA0225, pH 4, 100.00 nM
  Inactivation Rate: 0.001979 per second
CatL [5]; CAA0225, pH 6, 4.39 nM
  Inactivation Rate: 0.0002723 per second
CatL [5]; CAA0225, pH 6, 5.85 nM
  Inactivation Rate: 0.0006424 per second and 0.0005666 per second
CatL [5]; CAA0225, pH 6, 6.59 nM
  Inactivation Rate: 0.0004593 per second
CatL [5]; CAA0225, pH 6, 8.78 nM
  Inactivation Rate: 0.001025 per second and 0.001163 per second
CatL [5]; CAA0225, pH 6, 9.88 nM
  Inactivation Rate: 0.0009595 per second
CatL [5]; CAA0225, pH 6, 13.17 nM
  Inactivation Rate: 0.001923 per second and 0.002013 per second
CatL [5]; CAA0225, pH 6, 14.82 nM
  Inactivation Rate: 0.001982 per second
CatL [5]; CAA0225, pH 6, 19.75 nM
  Inactivation Rate: 0.00308 per second and 0.003226 per second
CatL [5]; CAA0225, pH 6, 22.22 nM
  Inactivation Rate: 0.003696 per second
CatL [5]; CAA0225, pH 6, 29.63 nM
  Inactivation Rate: 0.00521 per second and 0.005796 per second
CatL [5]; CAA0225, pH 6, 33.34 nM
  Inactivation Rate: 0.006322 per second
CatL [5]; CAA0225, pH 6, 44.44 nM
  Inactivation Rate: 0.007455 per second and 0.01045 per second
CatL [5]; CAA0225, pH 6, 50.00 nM
  Inactivation Rate: 0.009878 per second
CatL [5]; CAA0225, pH 6, 66.66 nM
  Inactivation Rate: 0.01058 per second and 0.01915 per second
[6]
  viability at 48 h, 1e-05 µM: 103%
  viability at 48 h, 0.0001 µM: 103%
  viability at 48 h, 0.001 µM: 101%
  viability at 48 h, 0.01 µM: 104%
  viability at 48 h, 0.1 µM: 100%
  viability at 48 h, 1 µM: 105%
  viability at 48 h, 10 µM: 105%
[7]
  EC50: < 500 nM
CatL [4]; 2:1 compound to protein
  2:1, Tm average (CatL): 70 °C
CatL [4]; 20:1 compound to protein
  20:1, Tm average (CatL): 78.5 °C
SARS-CoV-2 Mpro
  2:1, Tm average (Mpro): 53.3 °C

## CC(C)C[C@@H](C=O)NC(=O)[C@H](CC(C)C)NC(=O)[C@H](CC(C)C)NC(=O)OCc1ccccc1 [MG-132, Z-Leu-Leu-Leu-aldehyde] (Cbz-Leu-Leu-Leu-aldehyde)
Vero E6 cells
  cell toxicity: notably high cell toxicity
CatL [4]
  2:1, Tm average (CatL): 79.7 °C
  20:1, Tm average (CatL): 81.7 °C
  ΔTm [K] for CatL, 2:1 ratio: 16.6 ± 0.1 K
CatL [4]; pH 5
  ΔTm (for CatL), 2:1 compound to protein mixing ratio: 16,6 ± 0,1 °C and 16.6 °C
  ΔTm (for CatL), 20:1 compound to protein mixing ratio: 18,6 ± 0,1 °C and 18.6 °C

— paper PMC11089505, “Structural Elucidation and Antiviral Activity of Covalent Cathepsin L Inhibitors” (Journal of Medicinal Chemistry, 2024)
